The text below walks through data of patent publication US20160339079A1, “TRANSMUCOSAL AND TRANSEPITHELIAL DRUG DELIVERY SYSTEM” (UNIVERSITY OF BIRMINGHAM, priority 2014, published 2016).

SMILES strings stand for the structures.

One series deals with Retinal Ganglion Cells. The series is classed as cell-based, rats. On the procedure:
The cells were studied against several cell lines for any cytotoxic effects they might induce. Dissociated retinal cultures were prepared from rats and plated onto culture plates. The cells were treated with nanosome peptide and then incubated for 72 hours and fixed with formaldehyde. The cells were stained with β3 tubulin and imaged on the fluorescence microscope. The positive cells were counted and comparisons were taken.

Series [1] relates to primary rat meningeal fibroblast cells. The series is classed as cell-based, Sprague-Dawley Rats. On the procedure: The nanosome toxicity was also tested against primary rat meningeal fibroblast cells. The cells were isolated from Sprague-Dawley Rats. The leptomeninges was removed from the rat and the meningeal fibroblast cells were isolated from the tissue. The cells were then plated out and treated with nanosome. The cell media was supplemented with resazurin for 2 hours and then harvested and the media fluorescence read at 570 nm. The cell samples were then frozen in deionised water for DNA analysis (FIG. 7). […] This supports the work carried out in the retinal cultures that the nanosomes are not toxic.

Series [2] deals with gram positive and gram negative bacteria. In words: Broad spectrum antibacterial activity. The series is classed as cell-based. The conditions noted are these: both gram positive and gram negative bacteria. On the procedure: It is effective at killing both gram positive and gram negative bacteria and was particularly selective against pseudomonas aeruginosa with a MIC of 0.03 mg/mL.

Turning to `N=C(N)NCCC[C@H](NC(=O)[C@H](CCCNC(=N)N)NC(=O)[C@H](CCCNC(=N)N)NC(=O)[C@H](CCCNC(=N)N)NC(=O)[C@H](CCCNC(=N)N)NC(=O)[C@H](CCCNC(=N)N)NC(=O)CCCCCNC(=S)Nc1ccc2c(c1)C(=O)OC21c2ccc(O)cc2Oc2cc(O)ccc21)C(=O)O` [nanosome, RRRRRR-Linker-FITC], the “β3 tubulin positive cells, treated wells versus control” value in the series with Retinal Ganglion Cells is given as “no significant difference”. In addition, the “effect on the number of cells in the sample (DNA assay)” value in series [1] is recorded as “did not have a significant effect”. Further, in series [2], the killing of bacteria entry is given as “highly effective broad spectrum antibacterial agent”.
